Where a name gives a salt, the structure may show the parent alone.
Each molecule was assayed against T1, DPP-IV from porcine kidney (Sus scrofa, UniProt P22411) (assay: Measurement of the DPP-IV activity (fluorimetric H-Ala-Pro-AFC conversion)). Conditions: substrate H-Ala-Pro-AFC 15 μM, DPP-IV 1 mU/ml, Tris/HCl pH 7.4, room temperature.
T1 construct: DPP-IV from porcine kidney (Sigma Chemical Co, Munich DE); purchased Sigma Chemical Co, Munich DE; host or cells: porcine kidney (tissue-derived)
Format: biochemical
Protocol: a) Measurement of the DPP-IV Activity:
DPP-IV from porcine kidney (Sigma Chemical Co, Munich DE)
H-Ala-Pro-AFC (Bachem Chemical Co, Weil am Rhein DE)
Dipeptidyl peptidase-IV (DPP-IV) (1 mU/ml, final concentration)
H-Ala-Pro-AFC (15 μM, final concentration) in Tris/HCl (40 mM, pH 7.4), total volume 0.2 ml
The reaction was carried out at room temperature for various times (typically 10 min) and stopped at the end of the reaction by adding 20 μl of ZnCl2(1M). The H-Ala-Pro-AFC conversion was determined fluorimetrically by measuring the emission at 535 nm after excitation at 405 nm. When inhibitors were added, the added buffer volume was adapted so that a total volume of 200 μl was maintained for the assay mixture.
IC50 values for inhibitors were determined by varying the inhibitor concentrations with the stated substrate concentration of 15 μM. Ki and Km values were found by appropriate variation of substrate concentration and inhibitor concentration as described (Dixon, M. and Webb, E. C.(1979) Enzymes, third edition, pp. 47-206, Academic Press). The values for Km, IC50 and Ki were calculated using a commercially available software package (Leatherbarrow, R. J. (1992) GraFit Version 3.0, Erithacus Software Ltd. Staines, U.K.).

T1 sequence (P22411 whole entry): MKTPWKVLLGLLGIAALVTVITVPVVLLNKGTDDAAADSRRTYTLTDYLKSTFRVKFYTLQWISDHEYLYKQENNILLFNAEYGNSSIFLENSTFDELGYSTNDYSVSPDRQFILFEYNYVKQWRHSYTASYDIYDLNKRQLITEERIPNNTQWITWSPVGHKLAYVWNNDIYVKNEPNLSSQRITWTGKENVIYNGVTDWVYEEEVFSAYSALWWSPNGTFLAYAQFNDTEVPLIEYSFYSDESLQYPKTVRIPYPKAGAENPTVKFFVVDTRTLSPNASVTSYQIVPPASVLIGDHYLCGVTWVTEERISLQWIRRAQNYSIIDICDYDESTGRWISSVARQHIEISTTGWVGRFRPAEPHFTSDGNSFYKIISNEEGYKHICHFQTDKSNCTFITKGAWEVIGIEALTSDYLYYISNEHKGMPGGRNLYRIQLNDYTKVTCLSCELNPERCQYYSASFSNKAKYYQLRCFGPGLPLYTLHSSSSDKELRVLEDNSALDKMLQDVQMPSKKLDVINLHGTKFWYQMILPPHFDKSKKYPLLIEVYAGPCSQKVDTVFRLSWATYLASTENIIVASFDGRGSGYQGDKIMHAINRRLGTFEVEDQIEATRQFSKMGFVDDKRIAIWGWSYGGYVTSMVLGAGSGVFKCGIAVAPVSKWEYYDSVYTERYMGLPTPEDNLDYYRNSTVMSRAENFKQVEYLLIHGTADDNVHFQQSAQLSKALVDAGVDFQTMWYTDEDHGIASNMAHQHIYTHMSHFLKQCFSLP

| SMILES | IC50 |
| --- | --- |
| CC(C)=CCn1c(SC(C)(C)CN)nc2c1c(=O)n(CC(=O)c1ccccc1)c(=O)n2C [Example 1, 8-(2-Amino-1,1-dimethylethylsulfanyl)-3-methyl-7-(3-methylbut-2-enyl)-1-(2-oxo-2-phenylethyl)-3,7-dihydropurine-2,6-dione] | 1.7 nM |
| CC(C)=CCn1c(SCCN)nc2c1c(=O)n(CC(=O)c1ccccc1)c(=O)n2C [Example 3, 8-(2-Aminoethylsulfanyl)-3-methyl-7-(3-methylbut-2-enyl)-1-(2-oxo-2-phenylethyl)-3,7-dihydropurine-2,6-dione] | 72 nM |
| CC(C)=CCn1c(SC(C)(C)CN)nc2c1c(=O)[nH]c(=O)n2C [Example 5, 8-(2-Amino-1,1-dimethylethylsulfanyl)-3-methyl-7-(3-methylbut-2-enyl)-3,7-dihydropurine-2,6-dione] | 84 nM |
| CC(C)=CCn1c(SCC(C)(C)N)nc2c1c(=O)n(CC(=O)c1ccccc1)c(=O)n2C [Example 10, 8-(2-Amino-2-methylpropylsulfanyl)-3-methyl-7-(3-methylbut-2-enyl)-1-(2-oxo-2-phenylethyl)-3,7-dihydropurine-2,6-dione] | 120 nM |
| CC(C)=CCn1c(SC(C)(C)CN)nc2c1c(=O)n(Cc1nnc(C3CC3)s1)c(=O)n2C [Example 12, 8-(2-Amino-1,1-dimethylethylsulfanyl)-1-(5-cyclopropyl-[1,3,4]thiadiazol-2-ylmethyl)-3-methyl-7-(3-methylbut-2-enyl)-3,7-dihydropurine-2,6-dione] | 90 nM |
| CC(C)=CCn1c(SC(C)(C)CN)nc2c1c(=O)n(Cc1nc3cc(F)ccc3s1)c(=O)n2C [Example 19, 8-(2-Amino-1,1-dimethylethylsulfanyl)-1-(5-fluorobenzothiazol-2-ylmethyl) -3-methyl-7-(3-methylbut-2-enyl)-3,7-dihydropurine-2,6-dione] | 24 nM |
| CC(C)=CCn1c(SC(C)(C)CN)nc2c1c(=O)n(Cc1cc(C)on1)c(=O)n2C [Example 21, 8-(2-Amino-1,1-dimethylethylsulfanyl)-3-methyl-7-(3-methylbut-2-enyl)-1-(5-methylisoxazol-3-ylmethyl)-3,7-dihydropurine-2,6-dione hydrochloride] | 170 nM |
| CCn1c(=O)n(CC(=O)c2ccccc2)c(=O)c2c1nc(SC(C)(C)CN)n2CC=C(C)C [Example 23, 8-(2-Amino-1,1-dimethylethylsulfanyl)-3-ethyl-7-(3-methylbut-2-enyl)-1-(2-oxo-2-phenylethyl)-3,7-dihydropurine-2,6-dione] | 4.5 nM |
| CC(C)=CCn1c(SC(C)(C)CN)nc2c1c(=O)n(CC(=O)c1ccccc1)c(=O)n2C1CC1 [Example 24, 8-(2-Amino-1,1-dimethylethylsulfanyl)-3-cyclopropyl-7-(3-methylbut-2-enyl) -1-(2-oxo-2-phenylethyl)-3,7-dihydropurine-2,6-dione] | 9.4 nM |
| CC(C)=CCn1c(SC(C)(C)CN)nc2c1c(=O)n(CCc1ccccc1)c(=O)n2C1CC1 [Example 25, 8-(2-Amino-1,1-dimethylethylsulfanyl)-3-cyclopropyl-7-(3-methylbut-2-enyl) -1-phenethyl-3,7-dihydropurine-2,6-dione] | 48 nM |
| CC#CCn1c(SC(C)(C)CN)nc2c1c(=O)n(CC(=O)c1ccccc1)c(=O)n2C [Example 26, 8-(2-Amino-1,1-dimethylethylsulfanyl)-7-but-2-ynyl-3-methyl-1-(2-oxo-2-phenylethyl)-3,7-dihydropurine-2,6-dione] | 27 nM |
| CC(C)=CCn1c(SC(C)(C)CN)nc2c1c(=O)n(CC(=O)c1ccccc1)c(=O)n2CC(F)(F)F [Example 36, 8-(2-Amino-1,1-dimethylethylsulfanyl)-7-(3-methylbut-2-enyl)-1-(2-oxo-2-phenylethyl)-3-(2,2,2-trifluoroethyl)-3,7-dihydropurine-2,6-dione] | 21 nM |
| CC(C)=CCn1c(SC(C)(C)CN)nc2c1c(=O)n(CC(=O)c1ccccc1Cl)c(=O)n2C [Example 42, 8-(2-Amino-1,1-dimethylethylsulfanyl)-1-[2-(2-chlorophenyl)-2-oxoethyl]-3-methyl-7-(3-methylbut-2-enyl)-3,7-dihydropurine-2,6-dione] | 16 nM |
| CC(C)=CCn1c(SC(C)(C)CN)nc2c1c(=O)n(CC(=O)c1cccc(Cl)c1)c(=O)n2C [Example 43, 8-(2-Amino-1,1-dimethylethylsulfanyl)-1-[2-(3-chlorophenyl)-2-oxoethyl]-3-methyl-7-(3-methylbut-2-enyl)-3,7-dihydropurine-2,6-dione] | 30 nM |
| Cn1c(=O)n(CC(=O)c2ccccc2)c(=O)c2c1nc(SC1(CN)CCCC1)n2Cc1ccccc1 [Example 63, 8-(1-Aminomethylcyclopentylsulfanyl)-7-benzyl-3-methyl-1-(2-oxo-2-phenyl-ethyl)-3,7-dihydropurine-2,6-dione trifluoroacetate] | 14 nM |
| CC(C)=CCn1c(SC2(CN)CCCC2)nc2c1c(=O)n(CC(=O)c1ccccc1)c(=O)n2C [Example 64, 8-(1-Aminomethylcyclopentylsulfanyl)-3-methyl-7-(3-methylbut-2-enyl)-1-(2-oxo-2-phenylethyl)-3,7-dihydropurine-2,6-dione trifluoroacetate] | 7 nM |

From patent publication US8236810B2, “Substituted 8-aminoalkylthioxanthines, and their use as inhibitors of dipeptidyl peptidase IV” (Sanofi-Aventis Deutschland GmbH, priority 2004, dated 2012)
